Assay results reported in patent US3945994A, “Novel acid compounds” (Gist-Brocades N.V., priority 1973, dated 1976).
≈ marks a conversion by molar mass, not a printed value.

Columns and labels:
Format in all cases: cell-based
[1] = test system: Haemophilus influenzae A 1030; test: micro serial dilution test, MIC; conditions: A1030, micro serial dilution (between brackets), 30°C or 37°C, about 18 hours
[2] = test system: Diplococcus pneumoniae L 54; conditions: Streptococcus pneumoniae, L54; agar serial dilution, 24 hours at 37°C
[3] = test system: Pseudomonas aeruginosa Wyeth A 1058; conditions: WYETHA1058, agar serial dilution, 24 hours at 37°C
[4] = test system: Pseudomonas aeruginosa H 10; conditions: H10, agar serial dilution, 24 hours at 37°C
[5] = test system: Pasteurella multocida A 723; conditions: A723, agar serial dilution, 24 hours at 37°C
[6] = test system: Staphylococcus aureus A 321; conditions: A321, agar serial dilution, 24 hours at 37°C
[7] = test system: Staphylococcus aureus A 355'; conditions: agar serial dilution, 24 hours at 37°C
[8] = test system: Streptococcus haemolyticus A 1088; conditions: A1088, agar serial dilution, 24 hours at 37°C
Proteus morganii 2241 = conditions: Morganella morganii, agar serial dilution, 24 hours at 37°C
Proteus mirabilis H 3 = conditions: H3, agar serial dilution, 24 hours at 37°C
Proteus mirabilis A 1200 = conditions: A1200, agar serial dilution, 24 hours at 37°C
Salmonella dublin P 43 = conditions: Salmonella enterica, P43; agar serial dilution, 24 hours at 37°C
Proteus rettgeri A 821 = conditions: Providencia rettgeri, A821; agar serial dilution, 24 hours at 37°C
[9] = test system: Bacillus subtilis ATCC 6633; conditions: ATCC6633, agar serial dilution, 24 hours at 37°C
[10] = test system: Staphylococcus aureus A 2001; conditions: A2001, agar serial dilution, 24 hours at 37°C
[11] = test system: Staphylococcus aureus A 2000; conditions: A2000, agar serial dilution, 24 hours at 37°C
[12] = test system: Pseudomonas aeruginosa 2396; conditions: agar serial dilution, 24 hours at 37°C
[13] = test system: Streptococcus faecalis L 80; conditions: Enterococcus faecalis, L80; agar serial dilution, 24 hours at 37°C
[14] = test system: Klebsiella pneumoniae A 809; conditions: A809, agar serial dilution, 24 hours at 37°C
Escherichia coli U 20 = conditions: U20, agar serial dilution, 24 hours at 37°C
[15] = test system: Salmonella typhimurium R172; conditions: Salmonella enterica, agar serial dilution, 24 hours at 37°C
[16] = test system: Streptococcus haemolyticus A 266; conditions: A266, agar serial dilution, 24 hours at 37°C
[17] = test system: Salmonella typhimurium R 127; conditions: Salmonella enterica, agar serial dilution, 24 hours at 37°C

| SMILES | MIC [1] [µg/mL] | MIC [2] [µg/mL] | MIC [3] [µg/mL] | MIC [4] [µg/mL] | MIC [5] [µg/mL] | MIC [6] [µg/mL] | MIC [7] [µg/mL] | MIC (Proteus morganii 2241) [µg/mL] | MIC (Proteus mirabilis H 3) [µg/mL] | MIC (Proteus mirabilis A 1200) [µg/mL] | MIC (Salmonella dublin P 43) [µg/mL] | MIC (Proteus rettgeri A 821) [µg/mL] | MIC [9] [µg/mL] | MIC [10] [µg/mL] | MIC [11] [µg/mL] | MIC [12] [µg/mL] | MIC [13] [µg/mL] | MIC [14] [µg/mL] | MIC (Escherichia coli U 20) [µg/mL] | MIC [15] [µg/mL] | further results |
| --- | --- | --- | --- | --- | --- | --- | --- | --- | --- | --- | --- | --- | --- | --- | --- | --- | --- | --- | --- | --- | --- |
| CC(=O)OCC1=C(C(=O)O)N2C(=O)[C@@H](NC(=O)[C@H](N)c3ccccc3)[C@H]2SC1 [cephaloglycin, 7-(α-aminophenylacetamido) cephalosporanic acid, reference compound] | 125 (≈ 308 µM) | 6 (≈ 14.8 µM) | > 100 | > 100 | 50 (≈ 123 µM) | 12.5 (≈ 30.8 µM) | 12.5 (≈ 30.8 µM) | 100 (≈ 247 µM) | 25 (≈ 61.7 µM) | 12.5 (≈ 30.8 µM) | 12.5 (≈ 30.8 µM) | 1.5 (≈ 3.7 µM) | 0.25 (≈ 0.617 µM) | 12.5 (≈ 30.8 µM) | 12.5 (≈ 30.8 µM) | > 100 | > 100 | 6 (≈ 14.8 µM) | 1.5 (≈ 3.7 µM) | 12.5 (≈ 30.8 µM) | MIC [8]: 0.25 µg/mL (≈ 0.617 µM) |
| CC(=O)OCC1=C(C(=O)O)N2C(=O)[C@@H](NC(=O)CC#N)[C@H]2SC1 [cephacetril, reference compound] | 30 (≈ 88.4 µM) | 0.5 (≈ 1.47 µM) | > 100 | > 100 | 6 (≈ 17.7 µM) | 0.75 (≈ 2.21 µM) | 1.5 (≈ 4.42 µM) | > 100 | 12.5 (≈ 36.8 µM) | 12.5 (≈ 36.8 µM) | 12.5 (≈ 36.8 µM) | 3 (≈ 8.84 µM) | 0.12 (≈ 0.354 µM) | 0.5 (≈ 1.47 µM) | 1.5 (≈ 4.42 µM) | > 100 | 12.5 (≈ 36.8 µM) | 6 (≈ 17.7 µM) | 6 (≈ 17.7 µM) | 12.5 (≈ 36.8 µM) | MIC [8]: 0.5 µg/mL (≈ 1.47 µM) |
| CC1(C)S[C@@H]2C(NC(=O)C(N)c3ccccc3)C(=O)N2[C@H]1C(=O)O (stereo partly drawn) [ampicillin, 6-(α-aminophenylacetamido) penicillanic acid, reference compound] | – | 0.05 (≈ 0.143 µM) | > 100 | > 100 | 0.2 (≈ 0.572 µM) | 0.1 (≈ 0.286 µM) | 1.5 (≈ 4.29 µM) | – | 3 (≈ 8.59 µM) | 3 (≈ 8.59 µM) | 0.8 (≈ 2.29 µM) | 3 (≈ 8.59 µM) | 0.025 (≈ 0.0715 µM) | 0.75 (≈ 2.15 µM) | 1.5 (≈ 4.29 µM) | 50 (≈ 143 µM) | – | 50 (≈ 143 µM) | 3 (≈ 8.59 µM) | 3 (≈ 8.59 µM) | – |
| CC1(C)S[C@@H]2[C@H](NC(=O)[C@H](NC(=O)NS(=O)(=O)Nc3ccccc3)c3ccccc3)C(=O)N2[C@H]1C(=O)O [VII, D-6-[α-{3-(phenylaminosulfonyl)-ureido}-benzylcarbonamido]-penicillanic acid] | – | 1 (≈ 1.83 µM) | 50 (≈ 91.3 µM) | 50 (≈ 91.3 µM) | 25 (≈ 45.7 µM) | 1 (≈ 1.83 µM) | 25 (≈ 45.7 µM) | 25 (≈ 45.7 µM) | 3 (≈ 5.48 µM) | 3 (≈ 5.48 µM) | 12.5 (≈ 22.8 µM) | 1.5 (≈ 2.74 µM) | 1 (≈ 1.83 µM) | 3 (≈ 5.48 µM) | 12.5 (≈ 22.8 µM) | 25 (≈ 45.7 µM) | 25 (≈ 45.7 µM) | 25 (≈ 45.7 µM) | 12.5 (≈ 22.8 µM) | – | MIC [16]: 1 µg/mL (≈ 1.83 µM); MIC [17]: 25 µg/mL (≈ 45.7 µM) |
| CCOC(=O)NS(=O)(=O)N[C@@H](C(=O)N[C@@H]1C(=O)N2[C@@H]1SC(C)(C)[C@@H]2C(=O)O)c1ccccc1 [XIX, D-6-[α-(ethoxycarbonylaminosulfonylamino)-benzylcarbonamido]-penicillanic acid] | – | 3 (≈ 5.99 µM) | 50 (≈ 99.9 µM) | > 100 | 0.5 (≈ 0.999 µM) | 3 (≈ 5.99 µM) | 50 (≈ 99.9 µM) | > 100 | 25 (≈ 49.9 µM) | 25 (≈ 49.9 µM) | 50 (≈ 99.9 µM) | 3 (≈ 5.99 µM) | 1 (≈ 2 µM) | 6 (≈ 12 µM) | 12.5 (≈ 25 µM) | 100 (≈ 200 µM) | 25 (≈ 49.9 µM) | > 100 | 100 (≈ 200 µM) | – | MIC [16]: 0.25 µg/mL (≈ 0.499 µM); MIC [17]: 100 µg/mL (≈ 200 µM) |
